# Results as given in ChEMBL document CHEMBL1201862, “PubChem BioAssay data set” (2004).
# Activity calls are given as the source filed them.
# What was measured:
# H9c2 = experiment: cells; format: functional, cell-based; settings: Rattus norvegicus, H9c2, Myocardium;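 further: confirmatory concentration-response retest of ultra-high-throughput screening hits for modulation of myocardial damage; cell death induced by hydrogen peroxide oxidative stress; compound pretreatment for 60 min then peroxide exposure for 2 h; potency is for protecting the cells against peroxide damage rather than for killing them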
# cells [1] = format: functional, cell-based
# cells [2] = format: functional, cell-based; remark: listed apart in the source
# Cytochrome P450 2D6 = Cytochrome P450 2D6 (Homo sapiens, UniProt P10635);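 further: CYP2D6 member of a cytochrome P450 panel assay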
# [3] = target: T1, Replicative DNA helicase DnaB (Mycobacterium tuberculosis, UniProt P9WMR3); experiment: DnaB intein splicing inhibitors, dose response, biochemical, cell-free fluorescence (AID 449749); format: functional
# T1 sequence (P9WMR3 whole entry): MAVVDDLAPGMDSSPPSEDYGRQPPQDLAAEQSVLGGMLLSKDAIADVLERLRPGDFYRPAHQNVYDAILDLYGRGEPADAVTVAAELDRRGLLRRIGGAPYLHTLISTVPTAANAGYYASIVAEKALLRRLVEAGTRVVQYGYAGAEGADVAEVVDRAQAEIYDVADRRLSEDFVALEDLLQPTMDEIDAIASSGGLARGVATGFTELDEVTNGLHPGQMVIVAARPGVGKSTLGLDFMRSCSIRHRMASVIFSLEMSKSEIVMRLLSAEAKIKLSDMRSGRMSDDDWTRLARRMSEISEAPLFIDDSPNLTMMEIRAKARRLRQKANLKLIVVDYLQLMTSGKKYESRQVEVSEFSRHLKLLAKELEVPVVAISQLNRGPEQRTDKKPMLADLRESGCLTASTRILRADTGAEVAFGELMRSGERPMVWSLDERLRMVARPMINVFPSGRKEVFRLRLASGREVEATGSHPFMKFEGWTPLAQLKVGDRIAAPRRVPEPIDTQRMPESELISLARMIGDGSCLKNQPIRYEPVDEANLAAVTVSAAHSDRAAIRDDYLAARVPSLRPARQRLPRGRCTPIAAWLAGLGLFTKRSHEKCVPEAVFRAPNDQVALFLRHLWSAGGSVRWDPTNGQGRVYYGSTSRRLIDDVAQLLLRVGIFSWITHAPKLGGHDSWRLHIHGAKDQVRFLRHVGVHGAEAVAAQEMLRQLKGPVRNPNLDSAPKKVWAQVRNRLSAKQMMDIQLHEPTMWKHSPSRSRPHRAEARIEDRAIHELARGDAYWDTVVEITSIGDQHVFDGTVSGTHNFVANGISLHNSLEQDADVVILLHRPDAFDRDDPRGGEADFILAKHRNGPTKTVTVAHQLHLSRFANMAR
# Protein RecA = target: T2, Protein RecA (Mycobacterium tuberculosis, UniProt P9WHJ3); experiment: Fluorescence Cell-Free Homogeneous Dose Retest to Identify Inhibitors of RecA-Intein Splicing Activity. [Related pubchem assays (depositor defined):AID2097, AID2223, AID489010, AID492950]; format: functional
# T2 sequence (P9WHJ3 whole entry): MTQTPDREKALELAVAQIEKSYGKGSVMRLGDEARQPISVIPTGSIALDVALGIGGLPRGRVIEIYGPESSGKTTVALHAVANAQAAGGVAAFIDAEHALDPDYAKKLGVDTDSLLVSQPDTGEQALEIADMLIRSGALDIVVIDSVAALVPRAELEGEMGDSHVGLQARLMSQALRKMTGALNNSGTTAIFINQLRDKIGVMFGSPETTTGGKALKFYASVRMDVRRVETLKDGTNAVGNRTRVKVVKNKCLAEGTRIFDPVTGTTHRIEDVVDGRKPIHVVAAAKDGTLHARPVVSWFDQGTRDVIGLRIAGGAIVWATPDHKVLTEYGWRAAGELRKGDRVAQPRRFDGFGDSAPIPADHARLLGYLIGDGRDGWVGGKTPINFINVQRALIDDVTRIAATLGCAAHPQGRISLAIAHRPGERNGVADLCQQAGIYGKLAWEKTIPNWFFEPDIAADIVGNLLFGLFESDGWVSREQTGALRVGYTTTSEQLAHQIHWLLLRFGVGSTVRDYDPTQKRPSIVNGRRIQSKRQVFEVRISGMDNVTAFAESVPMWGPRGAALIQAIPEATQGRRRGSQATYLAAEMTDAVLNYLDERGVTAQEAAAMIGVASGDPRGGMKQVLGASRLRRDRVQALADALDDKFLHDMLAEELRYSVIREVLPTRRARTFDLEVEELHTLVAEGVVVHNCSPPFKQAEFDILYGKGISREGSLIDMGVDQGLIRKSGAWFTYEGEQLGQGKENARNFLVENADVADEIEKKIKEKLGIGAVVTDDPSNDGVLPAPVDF
# Cytochrome P450 3A4 = Cytochrome P450 3A4 (Homo sapiens, UniProt P08684);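 further: CYP3A4 tested as one member of a cytochrome P450 panel screen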
# INS1 = experiment: beta cell apoptosis inhibitors, cytokine rescue, dose response, luminescence, retest (AID 449756); format: functional, cell-based; settings: Rattus norvegicus;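 further: cell death triggered by IL-1 beta plus TNF-alpha plus IFN-gamma mixture; protective hits raise ATP signal compared with cytokine alone wells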
# Cytochrome P450 1A2 = target: T3, Cytochrome P450 1A2 (Homo sapiens, UniProt P05177);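 further: PubChem cytochrome P450 panel assay, CYP1A2 panel member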
# T3 sequence (P05177 whole entry): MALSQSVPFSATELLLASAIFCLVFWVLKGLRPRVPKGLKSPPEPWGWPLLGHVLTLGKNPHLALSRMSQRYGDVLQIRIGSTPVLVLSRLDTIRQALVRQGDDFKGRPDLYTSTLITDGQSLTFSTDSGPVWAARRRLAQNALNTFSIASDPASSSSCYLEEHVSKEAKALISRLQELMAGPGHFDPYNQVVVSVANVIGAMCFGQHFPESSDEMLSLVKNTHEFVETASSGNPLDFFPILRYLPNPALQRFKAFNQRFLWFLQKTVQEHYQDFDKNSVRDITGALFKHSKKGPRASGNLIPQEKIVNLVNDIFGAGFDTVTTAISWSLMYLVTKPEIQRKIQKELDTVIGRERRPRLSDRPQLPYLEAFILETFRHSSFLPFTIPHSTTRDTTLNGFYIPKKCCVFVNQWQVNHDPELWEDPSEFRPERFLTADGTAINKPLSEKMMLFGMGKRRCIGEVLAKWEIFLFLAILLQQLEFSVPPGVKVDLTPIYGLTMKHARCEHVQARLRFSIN
# Cytochrome P450 2C19 = Cytochrome P450 2C19 (Homo sapiens, UniProt P33261); experiment: Cytochrome panel assay with activity outcomes. Panel member name: p450-cyp2c19 Compounds with AC50 equal or less than 10 uM are considered active; format: functional; settings: read-out: AC50
# Sequence of Cytochrome P450 2C19 (P33261 whole entry): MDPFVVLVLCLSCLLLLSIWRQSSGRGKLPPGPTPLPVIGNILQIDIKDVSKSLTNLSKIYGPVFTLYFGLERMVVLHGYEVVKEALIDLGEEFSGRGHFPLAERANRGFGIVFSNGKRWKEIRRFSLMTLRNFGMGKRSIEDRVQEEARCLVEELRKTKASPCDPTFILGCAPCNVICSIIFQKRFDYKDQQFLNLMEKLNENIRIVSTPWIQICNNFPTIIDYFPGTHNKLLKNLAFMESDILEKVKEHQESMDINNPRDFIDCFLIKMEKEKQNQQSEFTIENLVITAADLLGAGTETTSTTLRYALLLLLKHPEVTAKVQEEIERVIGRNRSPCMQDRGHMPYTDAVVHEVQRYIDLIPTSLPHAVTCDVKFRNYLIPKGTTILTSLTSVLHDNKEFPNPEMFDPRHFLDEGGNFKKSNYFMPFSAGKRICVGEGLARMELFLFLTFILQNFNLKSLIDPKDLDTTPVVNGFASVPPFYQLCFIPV
# Sequence of Cytochrome P450 3A4 (P08684 whole entry): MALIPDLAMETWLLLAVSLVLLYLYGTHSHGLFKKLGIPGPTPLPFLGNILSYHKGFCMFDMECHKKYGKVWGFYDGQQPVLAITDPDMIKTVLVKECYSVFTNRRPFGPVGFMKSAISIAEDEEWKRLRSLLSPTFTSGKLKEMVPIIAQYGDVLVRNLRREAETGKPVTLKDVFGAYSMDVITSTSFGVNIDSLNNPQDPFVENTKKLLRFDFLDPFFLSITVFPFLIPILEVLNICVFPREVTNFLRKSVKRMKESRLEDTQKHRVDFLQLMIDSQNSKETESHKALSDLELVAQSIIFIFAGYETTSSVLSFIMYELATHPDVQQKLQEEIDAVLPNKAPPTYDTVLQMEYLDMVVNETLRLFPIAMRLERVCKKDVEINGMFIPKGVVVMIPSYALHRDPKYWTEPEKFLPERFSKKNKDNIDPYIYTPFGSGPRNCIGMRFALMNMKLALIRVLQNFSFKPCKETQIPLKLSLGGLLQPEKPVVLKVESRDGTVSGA
# Sequence of Cytochrome P450 2D6 (P10635 whole entry): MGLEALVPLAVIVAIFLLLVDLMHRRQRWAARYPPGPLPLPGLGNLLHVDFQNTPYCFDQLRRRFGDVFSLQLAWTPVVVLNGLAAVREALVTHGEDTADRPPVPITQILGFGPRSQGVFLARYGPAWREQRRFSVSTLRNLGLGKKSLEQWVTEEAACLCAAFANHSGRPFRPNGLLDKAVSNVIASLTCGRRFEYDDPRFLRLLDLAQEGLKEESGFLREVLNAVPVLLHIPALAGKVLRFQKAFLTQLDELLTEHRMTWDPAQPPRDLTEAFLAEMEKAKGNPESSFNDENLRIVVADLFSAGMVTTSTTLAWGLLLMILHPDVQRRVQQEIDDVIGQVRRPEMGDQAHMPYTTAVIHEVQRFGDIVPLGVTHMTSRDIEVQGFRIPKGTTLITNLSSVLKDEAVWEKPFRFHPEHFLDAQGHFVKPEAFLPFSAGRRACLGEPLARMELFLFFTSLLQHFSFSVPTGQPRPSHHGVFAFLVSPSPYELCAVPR
compound,measurement,setting,value
CN1CCN(Cc2nc(O)c3ccccc3n2)CC1,IC50,H9c2,24 µM (active)
O=C(CSc1nnc(Cc2cccs2)n1CCc1ccccc1)N1CCCc2ccccc21,IC50,H9c2,> 79 µM (inactive)
NC(=O)c1nsc(C(=O)N(CCc2ccccc2)C(C(=O)NC2CCCC2)c2ccco2)c1N (stereo not drawn),IC50,H9c2,> 79 µM (inactive)
COc1ccc(NC(=O)CNC(=O)Cc2cccc3ccccc23)c(OC)c1,EC50,cells [1],> 350 µM (not active)
same,EC50,cells [2],> 350 µM (not active)
CC(=O)N1CCC2(CCCN(c3ncccn3)C2)CC1,AC50,Cytochrome P450 2D6,31.6 µM (inconclusive)
COc1cc(SC)ccc1C(=O)Nc1ccc(C)cc1C,EC50,cells [1],> 350 µM (not active)
same,EC50,cells [2],5.81 µM (active)
Cc1ccc(-n2nc(C)c3c2OC(N)=C(C#N)C3c2ccco2)cc1 (stereo not drawn),AC50,[3],35.1 µM (inconclusive)
same,EC50,Protein RecA,6.22 µM (inconclusive)
same,AC50,Cytochrome P450 3A4,17.8 µM (inconclusive)
CC(C)(C)NC(=O)COC(=O)c1ccc(Cl)nc1,EC50,cells [1],> 350 µM (not active)
same,EC50,cells [2],> 350 µM (not active)
N#Cc1ccc(CN2CCC3(CC2)CCN(C(=O)c2cccc(F)c2)CC3)cc1,AC50,Cytochrome P450 2D6,12.6 µM (inconclusive)
Cc1cc(C)cc(N(CC(=O)NCCSc2ccccn2)S(=O)(=O)c2ccccc2)c1,AC50,Cytochrome P450 2D6,11.2 µM (inconclusive)
COc1ccc(NC(=S)N2CCN(C(=O)c3ccccc3)CC2)cc1,EC50,cells [1],> 350 µM (not active)
same,EC50,cells [2],> 350 µM (not active)
CCCNC(=O)c1c(N)n(-c2cccc(OC)c2)c2nc3ccccc3nc12,IC50,H9c2,28.5 µM (active)
same,AC50,INS1,36.8 µM (active)
Cn1ncc(Cl)c1C(=O)Nc1nc2ccc(Cl)cc2s1,EC50,cells [1],> 350 µM (not active)
same,EC50,cells [2],0.85 µM (active)
CCC(C)NC(=O)Cn1cnc2sc(C)cc2c1=O (stereo not drawn),AC50,Cytochrome P450 2D6,25.1 µM (inconclusive)
same,AC50,Cytochrome P450 1A2,6.31 µM (inconclusive)
CCNc1ncc2nc(-c3ccc(F)cc3)c(=O)n(-c3ccc(OC)cc3)c2n1,AC50,Cytochrome P450 2D6,0.158 µM (inconclusive)
same,AC50,Cytochrome P450 1A2,6.31 µM (inconclusive)
same,AC50,Cytochrome P450 3A4,20 µM (inconclusive)
O=C(CCc1nc(O)c2ccccc2n1)N1CCN(c2ccc(F)cc2)CC1,IC50,H9c2,> 79 µM (inactive)
Cc1cc(C)cc(C(=O)Nc2ccc(NC(=O)c3cccs3)cc2)c1,IC50,H9c2,> 79 µM (inactive)
CC1(C)CC2(CCO1)OC(=O)CC2C(=O)NCCc1ccccc1 (stereo not drawn),AC50,Cytochrome P450 2D6,22.4 µM (inconclusive)
same,AC50,Cytochrome P450 2C19,25.1 µM (inconclusive)
same,AC50,Cytochrome P450 3A4,28.2 µM (inconclusive)
Cc1nc2ccccc2c2c1C(=O)N(C)C2=O,AC50,[3],4.71 µM (active)
same,EC50,Protein RecA,0.794 µM (active)
CC(C)C1Nc2ccc(C(=O)N3CCN(c4ccccn4)CC3)cc2NC1=O (stereo not drawn),IC50,H9c2,21.2 µM (active)
O=C(N/N=C/c1ccc2c(c1)OCO2)c1ccc(NC(=O)c2ccccc2Cl)cc1,IC50,H9c2,9.19 µM (active)
Oc1c(Cl)cc(Cl)cc1/C=N/c1ccc(N2CCOCC2)cc1,IC50,H9c2,> 79 µM (inactive)
CCOC(=O)C1=C(c2ccccc2)N=c2s/c(=C\c3ccco3)c(=O)n2C1c1cccs1 (stereo not drawn),AC50,Cytochrome P450 2D6,15.8 µM (inconclusive)
same,AC50,Cytochrome P450 3A4,22.4 µM (inconclusive)
